Data reported in patent US11590199B2, “Use of an ABC transporter peptide inhibitor” (HUNAN UNIVERSITY OF SCIENCE AND ENGINEERING, priority 2021, dated 2023).

Columns and labels:
[1] = tested on: KB-3-1 parental cell line; assay: MDR reversal study (MTT), parental KB-3-1; type: cell-based; conditions: chemotherapeutic drug alone
[2] = tested on: HEK293/pcDNA3.1 parental cell line; assay: MDR reversal study (MTT), parental HEK293/pcDNA3.1; type: cell-based; conditions: for RF / IC50: chemotherapeutic drug alone
[3] = tested on: drug-induced ABCC1-overexpressing cancer cell line KB-CV60; assay: MDR reversal study (MTT), drug-induced ABCC1-overexpressing cells; type: cell-based; conditions: chemotherapeutic drug alone, Table 4
[4] = tested on: transfected ABCC1-overexpressing cell line HEK293/ABCC1; assay: MDR reversal study (MTT), transfected ABCC1-overexpressing cells; type: cell-based; conditions: chemotherapeutic drug alone
parental cells (KB-3-1) = assay: cells; conditions: Homo sapiens
[5] = tested on: drug-induced ABCB1-overexpressing cancer cell line KB-C2; assay: MDR reversal study (MTT), drug-induced ABCB1-overexpressing cells; conditions: chemotherapeutic drug alone

SMILES	RF ([1]; Table 2)	RF ([2]; Table 3)	RF ([1]; Table 4)	RF ([2]; Table 5)	RF [3]	RF [4]	further results
COc1cccc2c1C(=O)c1c(O)c3c(c(O)c1C2=O)C[C@@](O)(C(=O)CO)C[C@@H]3O[C@H]1C[C@H](N)[C@H](O)[C@H](C)O1 [Doxorubicin]	1.00						
CC(=O)O[C@H]1C(=O)[C@@]2(C)[C@H]([C@H](OC(=O)c3ccccc3)[C@]3(O)C[C@H](OC(=O)[C@H](O)[C@@H](NC(=O)c4ccccc4)c4ccccc4)C(C)=C1C3(C)C)[C@]1(OC(C)=O)CO[C@@H]1C[C@@H]2O [Paclitaxel]	1.00	1.00					
CC[C@]1(O)C[C@H]2CN(CCc3c([nH]c4ccccc34)[C@@](C(=O)OC)(c3cc4c(cc3OC)N(C=O)[C@H]3[C@@](O)(C(=O)OC)[C@H](OC(C)=O)[C@]5(CC)C=CCN6CC[C@]43[C@@H]65)C2)C1 [Vincristine]			1.00	1.00	169.05	19.79	IC50 ([1]; Homo sapiens, 72 h, Table 4): 0.095 µM; IC50 ([2]; Homo sapiens, Table 5): 0.137 µM; IC50 (parental cells (KB-3-1)): 0.095 µM
N.N.[Cl][Pt][Cl] [Cisplatin]	1.00	1.00	1.00	1.00	1.25	1.01	IC50 ([1]; Table 2): 1.79 ± 0.476 µM; IC50 ([1]; Table 4): 1.79 µM; IC50 ([2]; Table 3): 2.21 ± 0.541 µM; IC50 ([2]; Table 5): 2.21 µM; IC50 [3]: 2.23 µM; IC50 [4]: 2.23 µM; RF [5]: ± 0.428 (1.13)
CN(C)C(=O)CCSC(SCCC(=O)O)c1cccc(/C=C/c2ccc3ccc(Cl)cc3n2)c1 (stereo not shown) [MK571]							RF of cisplatin ([2]; cisplatin + MK571 (5 μM)): 0.99; RF of vincristine ([2]; vincristine + MK571 (5 μM)): 1.02
